Where two headings read alike, the source gives them in different places.
Assays:
[1] = molecular target: Beta Secretase enzyme (BACE) (Homo sapiens, UniProt P56817); test: In vitro enzymatic BACE FRET (fluorescence resonance energy transfer) assay; format: biochemical;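 further: fluorescence read after 1 h with 50 nM quenched peptide substrate spanning the BACE cleavage site, in pH 4.2 acetate buffer containing 10% DMSO and nonionic detergent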
[2] = tested on: Aβ40 in conditioned medium of cells stably expressing Amyloid Precursor Protein (APP); test: In vitro BACE cell-based assay (Aβ40 in conditioned medium, sandwich ELISA);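 further: compounds added as a dilution series, secreted peptide quantified by europium time-resolved fluorescence readout, potency fitted from percent of control versus compound concentration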
[3] = BACE enzyme assay, read-out: BACE1 FRET assay (IC50)
[4] = Homo sapiens, HEK293, HEK cells, cell-based assay, read-out: HEK cell assay (IC50)
[5] = BACE enzyme FRET assay, read-out: BACE1 FRET assay (IC50)
[6] = Table 1, read-out: BACE1 FRET assay
[7] = Homo sapiens, HEK293, Table 1, HEK cells, read-out: HEK cell assay
[8] = BACE enzyme assay, IC50's in uM, read-out: BACE1 FRET assay
[9] = Homo sapiens, HEK293, cell-based assay, HEK cells, IC50's in uM, read-out: HEK cell assay
[10] = read-out: BACE1 FRET assay (IC50)
[11] = Homo sapiens, HEK293, HEK cells, read-out: HEK cell assay (IC50)
[12] = HEK cells, cell-based assay, read-out: HEK cell assay (IC50)

Sequence of Beta Secretase enzyme (BACE) (P56817 46-501): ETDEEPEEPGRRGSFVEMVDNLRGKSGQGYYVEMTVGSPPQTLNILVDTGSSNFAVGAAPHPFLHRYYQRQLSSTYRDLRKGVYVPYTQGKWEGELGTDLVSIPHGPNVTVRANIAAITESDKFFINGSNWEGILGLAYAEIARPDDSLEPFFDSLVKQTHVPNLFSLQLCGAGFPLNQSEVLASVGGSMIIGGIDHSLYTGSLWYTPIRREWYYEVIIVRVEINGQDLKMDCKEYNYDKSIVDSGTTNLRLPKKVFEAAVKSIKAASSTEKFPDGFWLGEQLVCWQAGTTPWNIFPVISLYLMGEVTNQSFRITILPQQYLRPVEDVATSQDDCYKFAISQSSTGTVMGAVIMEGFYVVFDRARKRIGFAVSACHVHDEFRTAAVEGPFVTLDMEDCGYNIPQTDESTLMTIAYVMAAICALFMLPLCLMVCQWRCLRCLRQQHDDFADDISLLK

Row | SMILES | IC50 [1, 3] [µM] | IC50 [2, 4] [µM] | IC50 [1, 5] [µM] | also measured
1 | CC(C)(C)[C@@H](F)c1cnc2c(c1)[C@@H](NC[C@@H](O)[C@H](Cc1ccc3c(c1)OCO3)NC(=O)CF)CC1(CCC1)O2 [compound 185] | 0.0185 | 0.0264 |  | 
2 | CC(C)(C)Cc1cnc2c(c1)[C@@H](NC[C@@H](O)[C@H](Cc1ccc3c(c1)OCO3)NC(=O)CF)CC1(CCC1)O2 [compound 283] |  | 0.019 | 0.00751 | 
3 | CO[C@H](C)C(=O)N[C@@H](Cc1ccc(F)cc1)[C@H](O)CN[C@H]1CC2(CCC2)Oc2ncc(CC(C)C)cc21 [compound 333] |  |  |  | IC50 [1, 6]: 0.029 µM; IC50 [2, 7]: 0.0479 µM
4 | CC(=O)N[C@@H](Cc1ccc2c(c1)OCO2)[C@H](O)CN[C@H]1CC2(CCC2)Oc2ncc(CC(C)(C)CF)cc21 [compound 178] | 0.00839 | 0.0175 |  | 
5 | CC(=O)N[C@@H](Cc1ccccc1)[C@H](O)CN[C@H]1CC2(CCC2)Oc2ncc(CC3(C(F)(F)F)CC3)cc21 [compound 318] |  |  |  | IC50 [1, 6]: 0.0347 µM; IC50 [2, 7]: 0.085 µM
6 | CO[C@H](C)C(=O)N[C@@H](Cc1ccc(F)c(Cl)c1)[C@H](O)CN[C@H]1CC2(CCC2)Oc2ncc(CC(C)(C)F)cc21 [compound 72] | 0.0291 | 0.0605 |  | 
7 | COCC(=O)N[C@@H](Cc1cccc(-c2nccs2)c1)[C@H](O)CN[C@H]1CC2(CCC2)Oc2cnc(CC(C)(C)C)cc21 [compound 807] |  |  |  | IC50 [1, 8]: 0.019 µM; IC50 ([2]; Homo sapiens, HEK293, HEK cell-based assay, IC50's in uM, read-out: HEK cell assay): 0.054 µM
8 | COCC(=O)N[C@@H](Cc1ccc2c(c1)OCO2)[C@H](O)CN[C@H]1CC2(CCC2)Oc2nc(F)c(CC(C)C)cc21 [compound 337] |  |  |  | IC50 [1, 6]: 0.12 µM; IC50 [2, 7]: 0.531 µM
9 | C#Cc1ccc(C[C@H](NC(=O)COC)[C@H](O)CN[C@H]2CC3(CCC3)Oc3ncc(CC(C)C)cc32)cc1 [Example 855] |  |  |  | IC50 [1, 8]: 0.062 µM; IC50 [2, 9]: 0.174 µM
10 | COCC(=O)N[C@@H](Cc1ccccc1)[C@H](O)CN[C@H]1CC2(CCC2)Oc2cnc(CC(C)(C)C)cc21 [compound 121] | 0.0221 | 0.102 |  | 
11 | CO[C@H](C)C(=O)N[C@@H](Cc1ccc2c(c1)OCO2)[C@H](O)CN[C@H]1CC2(CCC2)Oc2ncc(CC(C)(C)C(F)(F)F)cc21 [compound 363] |  |  |  | IC50 [1, 6]: 0.049 µM; IC50 [2, 7]: 0.16 µM
12 | CCOCC(=O)N[C@@H](Cc1ccc(F)cc1)[C@H](O)CN[C@H]1CC2(CCC2)Oc2ncc(CC(C)(C)C)cc21 [compound 655] |  |  |  | IC50 [1, 10]: 0.013 µM; IC50 [2, 11]: 0.043 µM
13 | C#Cc1cc(C[C@H](NC(=O)COC)[C@H](O)CN[C@H]2CC3(CCC3)Oc3ncc(CC(C)(C)C)cc32)cc(-c2nccs2)c1 [compound 889] |  |  |  | IC50 [1, 8]: 0.653 µM; IC50 [2, 9]: 0.989 µM
14 | COCC(=O)N[C@@H](Cc1ccc(Cl)cc1)[C@H](O)CN[C@H]1CC2(CCC2)Oc2ncc(CC(C)(C)C)cc21 [compound 212] |  | 0.0314 | 0.00215 | 
15 | COCCNc1nc(CC(C)(C)C)cc2c1OC1(CCC1)C[C@@H]2NC[C@@H](O)[C@H](Cc1ccc(F)cc1)NC(=O)COC [compound 150] | 0.0479 | 0.0226 |  | 
16 | COCC(=O)N[C@@H](Cc1cc(F)cc(F)c1)[C@H](O)CN[C@H]1CC2(CCC2)Oc2c(-c3ccncc3)cc(CC(C)(C)F)cc21 [compound 579] |  |  |  | IC50 [1, 10]: 0.014 µM; IC50 [2, 11]: 0.005 µM
17 | CC(=O)N[C@@H](Cc1ccc2c(c1)OCO2)[C@H](O)CN[C@H]1CC2(CCC2)Cc2ncc(CC(C)(C)C)cc21 [compound 167] | 0.125 | 0.0684 |  | 
18 | CC(=O)N[C@@H](Cc1ccc2c(c1)OCO2)[C@H](O)CN[C@H]1CC2(CCC2)Oc2ncc(CC3(C(F)(F)F)CC3)cc21 [compound 312] |  | 0.197 | 0.0617 | 
19 | COCC(=O)N[C@@H](Cc1ccc(F)cc1)[C@H](O)CN[C@H]1CC2(CCC2)Oc2ncc([C@@H](O)C(C)(C)C)cc21 [compound 189] |  | 1 | 0.88 | 
20 | CC(C)C(=O)N[C@@H](Cc1ccc2c(c1)OCO2)[C@H](O)CN[C@H]1CC2(CCC2)Oc2ncc(CC(C)(C)C)cc21 [compound 881] |  |  |  | IC50 [1, 8]: 0.144 µM; IC50 [2, 9]: 0.813 µM
21 | COCC(=O)N[C@@H](Cc1ccc(F)cc1)[C@H](O)CN[C@H]1CC2(CCC2)Oc2ncc(CC(C)(F)F)cc21 [compound 271] |  | 0.1 | 0.0387 | 

Row | SMILES | IC50 [1, 3] [µM] | IC50 [2, 4] [µM] | IC50 [1, 5] [µM] | also measured
22 | CC(=O)N[C@@H](Cc1ccc(F)cc1)[C@H](O)CN[C@H]1CC2(CCC2)Oc2ncc(CC(C)(F)F)cc21 [compound 274] |  | 0.0727 | 0.0297 | 
23 | CC(=O)N[C@@H](Cc1ccnc(OCC(F)F)c1)[C@H](O)CN[C@H]1CC2(CCC2)Oc2c(F)cc(CC(C)(C)C)cc21 [compound 223] |  | 0.0298 | 0.00969 | 
24 | COCC(=O)N[C@@H](Cc1ccc(F)cc1)[C@H](O)CN[C@H]1CC2(CCC2)Oc2ncc(CC3(C(F)(F)F)CC3)cc21 [compound 311] |  | 0.307 | 0.0515 | 
25 | COCC(=O)N[C@@H](Cc1cccc(F)c1)[C@H](O)CN[C@H]1CC2(CCC2)Oc2ncc(CC(C)C)cc21 [compound 329] |  |  |  | IC50 [1, 6]: 0.00326 µM; IC50 [2, 7]: 0.00601 µM
26 | CO[C@H](C)C(=O)N[C@@H](Cc1cccc(F)c1)[C@H](O)CN[C@H]1CC2(CCC2)Oc2cnc(CC(C)(C)F)cc21 [compound 253] |  | 0.0744 | 0.0362 | 
27 | CC(=O)N[C@@H](Cc1ccc(F)cc1)[C@H](O)CN[C@H]1CC2(CCC2)Oc2c(F)cc(CC(C)(C)C#N)cc21 [compound 171] | 0.0159 | 0.0282 |  | 
28 | COCC(=O)NC(Cc1ccc(F)cc1)C(O)CNC1CC2(CC(O)C2)Oc2ncc(CC(C)C)cc21 [compound 249, N-((1S,2R)-1-((4-fluorophenyl)methyl)-2-hydroxy-3-(((1s,3S,4′S)-3-hydroxy-6′-(2-methylpropyl)-3′,4′-dihydrospiro[cyclobutane-1,2′-pyrano[2,3-b]pyridin]-4′-yl)amino)propyl)-2-(methyloxy)acetamide] |  | 0.0113 | 0.0065 | 
29 | CC(=O)N[C@@H](Cc1ccc(F)cc1)[C@H](O)CN[C@H]1C[C@]2(CC[C@H]2O)Oc2ncc(CC(C)(C)C)cc21 [compound 118] | 0.00911 | 0.028 |  | 
30 | COCC(=O)N[C@@H](Cc1ccc2c(c1)OCO2)[C@H](O)CN[C@H]1CC2(CCC2)Oc2ncc([C@H](F)C(C)(C)C)cc21 [compound 183] | 0.00863 | 0.0178 |  | 
31 | COCC(=O)N[C@@H](Cc1ccc(F)cc1)[C@H](O)CN[C@H]1CC2(CCC2)Oc2ncc(CC(C)(C)C(F)(F)F)cc21 [compound 76] | 0.00368 | 0.0108 |  | 
32 | CC(C)(C)Cc1cnc2c(c1)[C@@H](NC[C@@H](O)[C@H](Cc1cc(F)cc(F)c1)NC(=O)CCl)CC1(CCC1)O2 [compound 104] | 0.00369 |  |  | IC50 [2, 12]: 0.0187 µM
33 | CC(=O)N[C@@H](Cc1ccc(F)cc1)[C@H](O)CN[C@@H]1c2cc(CC(C)(C)C)cnc2OC2(CCC2)[C@@H]1F [compound 358] |  |  |  | IC50 [1, 6]: 0.0224 µM; IC50 [2, 7]: 0.353 µM
34 | CO[C@H](C)C(=O)N[C@@H](Cc1ccc(F)cc1)[C@H](O)CN[C@H]1CC2(CCC2)Oc2ncc([C@H](F)C(C)(C)C)cc21 [compound 186] |  | 0.0265 | 0.00776 | 
35 | CC(C)(C)Cc1cnc2c(c1)[C@@H](NC[C@@H](O)[C@H](Cc1ccc3c(c1)OCO3)NC(=O)CCl)CC1(CCC1)O2 [compound 309] |  | 0.04 | 0.0206 | 
36 | COC(=O)C1CC2(C1)CC(NCC(O)C(Cc1ccc(F)cc1)NC(C)=O)c1cc(CC(C)(C)C)cnc1O2 [compound 257, methyl (1s,3R,4′S)-4′-(((2R,3S)-3-(acetylamino)-4-(4-fluorophenyl)-2-hydroxybutyl)amino)-6′-(2,2-dimethylpropyl)-3′,4′-dihydrospiro[cyclobutane-1,2′-pyrano[2,3-b]pyridine]-3-carboxylate] |  |  | 0.271 | IC50 [2, 12]: 0.372 µM
37 | COCC(=O)N[C@@H](Cc1cccc(C#N)c1)[C@H](O)CN[C@H]1CC2(CCC2)Oc2ncc(CC(C)(C)F)cc21 [compound 57] | 0.00294 | 0.0053 |  | 
38 | CC(=O)N[C@@H](Cc1ccc(F)cc1)[C@H](O)CN[C@H]1CC2(CCC2)Cc2ncc(CC(C)(C)C)cc21 [compound 164] | 0.0623 | 0.0205 |  | 
39 | COCC(=O)N[C@@H](Cc1cccc(C#N)c1)[C@H](O)CN[C@H]1CC2(CCC2)Oc2ncc(CC(F)(F)F)cc21 [compound 347] |  |  |  | IC50 [1, 6]: 0.0104 µM; IC50 [2, 7]: 0.0192 µM
40 | COC(OC)C(=O)N[C@@H](Cc1cccc(C(N)=O)c1)[C@H](O)CN[C@H]1CC2(CCC2)Oc2ncc(CC(C)(C)F)cc21 [compound 864] |  |  |  | IC50 [1, 8]: 0.04 µM; IC50 [2, 9]: 0.117 µM
41 | CC(C)(C)Cc1cnc2c(c1)[C@@H](NC[C@@H](O)[C@H](Cc1cccc(F)c1)NC(=O)C1CN(C3CCC3)C(=O)C1(C)C)CC1(CCC1)O2 (stereo partly shown) [compound 66] | 0.0436 | 1.11 |  | 

Reference: patent publication US8163909B2, “Substituted hydroxyethyl amine compounds as beta-secretase modulators and methods of use” (Amgen Inc., priority 2007, dated 2012)
